The assay deals with Lipase (Fa. Sigma) aus Pseudomonas species. As to the kind of experiment: In vitro lipase inhibition test (Lipase Color Liquid assay, photometric release of methylresorufin). Type of assay: biochemical. The following applies: 37°C, pH 8.4, activity without inhibitor = 100%. The text has this: Die hemmende Wirkung der Enzym-Inhibitoren wurde in vitro an einem geeigneten Modellenzym nachgewiesen. Da eine hautrelevante Lipase nicht zur Verfügung stand, diente die Lipase (Fa. Sigma) aus Pseudomonas species als Modellenzym, um die Hemmwirkung der erfindungsgemäß verwendeten Inhibitoren zu testen. Als Referenz diente Hinokitiol.
Der Nachweis der Lipase-Enzymaktivität erfolgt analog zu den Angaben im Lipase Color Liquid Autom ―Datenblatt der Fa. Sentinel. Hierbei wird die Lipase-katalysierte Spaltung von 1,2-O-dilauryl-rac-glycero-3-glutarsäure-(6'-methylresorufin)-ester in Glutarsäure und Methylresorufin bestimmt. Die Freisetzung des Methylresorufin verursacht eine Purpurfärbung (λ = 580 nm), deren Bildung photometrisch verfolgt wird. [drawing 4]
Der Assay wurde nach Herstellerangaben (37°C, Gesamtvolumen 1.21 ml) durchgeführt und enthielt: 37 mM Tris-Puffer (pH 8.4), 1,6 mM Desoxycholat, 6.6 mM Taurodesoxycholat, 0.9 mg/l Colipase, 1.5 mM Tartrat, 0.1 mM CaCl2 und 0.24 mM 1,2-O-dilauryl-rac-glycero-3-glutaric acid-(6'-methylresorufin)-ester (Substrat). Die Reaktion wurde mit 0.005 U Lipase (10 µl) gestartet und nach einer Inkubation von einer Minute die Zunahme der Absorption bei […] über 2 min verfolgt. Der lineare Anstieg der Absorption (A) pro Zeiteinheit (t) war hierbei ein Maß für die Aktivität des Enzyms (ΔA/Δt). Die Aktivität des Enzyms in Abwesenheit eines Inhibitors, (ΔA1/Δt1 ), wurde als Referenz gleich 100% gesetzt. Unter analogen Bedingungen wurden die Aktivitäten in Gegenwart eines Inhibitors (ΔA2/Δt2) bestimmt. Die Hemmwirkung des Inhibitors bzw. die Minderung der Enzymaktivität entspricht dann: 100% - (ΔA2/Δt2 )/( ΔA1/Δt1 )%.

For `CCCCCCCCCCCC(=O)NC(CCC(=O)O)C(=O)O` (stereo not drawn) [Protelan AGL95PV, Natriumlauroylglutamat], the “Hemmwirkung (Minderung der Lipase-Aktivität)” value (shortened to “Hemmwirkung”) (inhibitor concentration 0,01 % (v/v)) came to 29%, the “Hemmwirkung” value (inhibitor concentration 0,1 % (v/v)) is recorded as 56% and the “Hemmwirkung” value (inhibitor concentration 1 % (v/v)) is 85%.

Values taken from EP1428520A2, “Lipase inhibitors in deodorants and antiperspirants” (Henkel Kommanditgesellschaft auf Aktien, priority 2002, dated 2004).
